Reference: patent US12195427B2, “MASP-2 inhibitors and methods of use” (priority 2018, dated 2025)

Key:
MASP-2 CCP2-SP = MASP-2 CCP2-SP (Homo sapiens (Human), UniProt O00187); assay: MASP-2 co-crystallization, X-ray crystallography and structure analysis (H-bonds, van der Waals contacts); parameters: van der Waals contact distance, MASP-2 HIS 483 atom CD2 / van der Waals contact distance, MASP-2 HIS 483 atom NE2 / van der Waals contact distance, SER 654 C to compound atom / van der Waals contact distance, SER 654 O to compound atom / van der Waals contact distance, TRP 655 C to compound atom / van der Waals contact distance, MASP-2 GLY 528 atom CA / van der Waals contact distance TRP 655 atom CZ3 / van der Waals contact distance TRP 655 atom N / van der Waals contact distance TRP 655 atom CE3 / van der Waals contact distance GLY 656 atom C / van der Waals contact distance GLY 656 atom CA / van der Waals contact distance GLY 656 atom O / van der Waals contact distance, MASP-2 TYR 607 atom CD1 / van der Waals contact distance, MASP-2 PRO 606 atom O / d(C3,CA1) / d(CA1,N1)2 / d(H4,O1) / d(H4,O2) / d(O1,O2) / d(CA1,O2) / d(CA6,O1) / d(CA6,O2) / d(CA1,C5) / d(O2,H3) / d(N2,C2) / d(CA5,N2) / d(N2,C4) / d(N2,C6) / d(N2,CA3) / d(N2,O3) / d(O4,H2): unit not given beside the values;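 for Ligand-pharmacophore element distance, pharmacophore element C2: distance from averaged pharmacophore element to bound ligand; missing value means element absent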;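 for Ligand-pharmacophore element distance, pharmacophore element C3: distance from averaged pharmacophore element to bound ligand; missing value means element absent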;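 for Ligand-pharmacophore element distance, pharmacophore element C4: distance from averaged pharmacophore element to bound ligand; missing value means element absent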;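 for Ligand-pharmacophore element distance, pharmacophore element C5: distance from averaged pharmacophore element to bound ligand; missing value means element absent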
How it was run: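 E. coli-expressed CCP2-SP (±6His); apo crystals soaked 1–2× in inhibitor-containing crystallization solution; optional 20% glycerol cryoprotection, LN2 flash-cool; synchrotron data at 1.0 wavelength; MR using 1Q3X portions, partial refinement; single pose analysed when several seen.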

Lectin Pathway = Lectin Pathway Activation Assay in Human Serum (mannan-coated ELISA, C3c detection); type: biochemical; details: 1% human serum
Description: Microtiter ELISA plate was coated with mannan from Saccharomyces cerevisiae (Sigma-Aldrich, M7504) for overnight at 4° C. in coating buffer [15 mM Na2CO3, 35 mM NaHCO3].

[1] = Table A5-1 pharmacophore: distance between elements, S2/S1 region
[2] = Table A5-2 pharmacophore distance, S3/S4 region
[3] = Table A7-1, between pharmacophore elements of the bound compound
[4] = Table A7-2, between pharmacophore elements of the bound compound

MASP-2 CCP2-SP, sequence (O00187 445-686): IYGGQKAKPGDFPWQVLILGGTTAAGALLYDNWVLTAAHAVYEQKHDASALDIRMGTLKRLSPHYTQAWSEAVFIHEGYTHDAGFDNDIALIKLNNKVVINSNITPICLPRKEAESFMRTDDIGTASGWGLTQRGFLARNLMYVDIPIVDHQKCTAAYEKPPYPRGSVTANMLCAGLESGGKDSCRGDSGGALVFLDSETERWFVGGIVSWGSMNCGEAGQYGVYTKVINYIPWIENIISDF
MASP-2 CCP2-SP, sequence (O00187 364-432 partner): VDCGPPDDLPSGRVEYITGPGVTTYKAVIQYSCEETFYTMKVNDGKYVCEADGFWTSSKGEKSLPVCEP

Cc1nc(N)ccc1CNC(=O)[C@H](C)NC(=O)[C@H]1C[C@H](Cc2ccc(-c3ccccc3)cc2)CN1 [compound 1351, (2R,4S)-4-([1,1′-Biphenyl]-4-ylmethyl)-N—((S)-1-(((6-amino-2-methylpyridin-3-yl)methyl)amino)-1-oxopropan-2-yl)pyrrolidine-2-carboxamide]
H-bond distance to MASP-2 ASP 627 atom OD2 (MASP-2 CCP2-SP; Table A1 (H-Bonds), ASP 627 OD2): 3.22
H-bond distance to MASP-2 GLY 656 atom N (MASP-2 CCP2-SP; Table A1 (H-Bonds), GLY 656 N): 3.25
H-bond distance to MASP-2 GLY 656 atom O (MASP-2 CCP2-SP; Table A1 (H-Bonds), GLY 656 O): 2.76
H-bond distance to MASP-2 SER 654 atom O (MASP-2 CCP2-SP; Table A1 (H-Bonds), SER 654 O): 2.98
H-bond distance to MASP-2 SER 657 atom O (MASP-2 CCP2-SP; Table A1 (H-Bonds), SER 657 O): 2.8
van der Waals contact distance, MASP-2 HIS 483 atom CD2 (MASP-2 CCP2-SP; Table A2-1): 3.66
van der Waals contact distance, MASP-2 HIS 483 atom NE2 (MASP-2 CCP2-SP; Table A2-1): 3.9
van der Waals contact distance, MASP-2 ALA 527 atom CA (MASP-2 CCP2-SP; Table A2-2): 3.71
van der Waals contact distance, MASP-2 PHE 529 atom CE1 (MASP-2 CCP2-SP; Table A2-3): 3.8
van der Waals contact distance, MASP-2 amino acid atom to compound atom (MASP-2 CCP2-SP; Table A2-9, ARG 630, AA atoms CG, CZ): 3.81
van der Waals contact distance, VAL 653 CG1 to compound atom (MASP-2 CCP2-SP; Table A2-11): 3.3
van der Waals contact distance, TRP 655 CA to compound atom (MASP-2 CCP2-SP; Table A2-12): 3.34
Ligand-pharmacophore element distance, pharmacophore element C2 (MASP-2 CCP2-SP; Table A4-1, element C2): 0
Ligand-pharmacophore element distance, pharmacophore element C3 (MASP-2 CCP2-SP; Table A4-1, element C3): 0.12
Ligand-pharmacophore element distance, pharmacophore element C4 (MASP-2 CCP2-SP; Table A4-1, element C4): 0
Ligand-pharmacophore element distance, pharmacophore element C5 (MASP-2 CCP2-SP; Table A4-1, element C5): 0
Ligand-pharmacophore element distance, pharmacophore element C6 (MASP-2 CCP2-SP; Table A4-1, element C6): 0
Ligand-pharmacophore element distance, pharmacophore element C7 (MASP-2 CCP2-SP; Table A4-1, element C7): 0
Ligand-pharmacophore element distance, pharmacophore element CA1 (MASP-2 CCP2-SP; Table A4-1, element CA1): 0.57
Ligand-pharmacophore element distance, pharmacophore element CA2 (MASP-2 CCP2-SP; Table A4-1, element CA2): 0.8
Ligand-pharmacophore element distance, pharmacophore element CA3 (MASP-2 CCP2-SP; Table A4-1, element CA3): 0
Ligand-pharmacophore element distance, pharmacophore element CA4 (MASP-2 CCP2-SP; Table A4-1, element CA4): 3.3
Ligand-pharmacophore element distance, pharmacophore element CA5 (MASP-2 CCP2-SP; Table A4-1, element CA5): 0
Ligand-pharmacophore element distance, pharmacophore element CA6 (MASP-2 CCP2-SP; Table A4-1, element CA6): 0
d(C3,CA1) (MASP-2 CCP2-SP; [1]): 2.85
d(CA1,N1)2 (MASP-2 CCP2-SP; [1]): 1.38
d(CA1,O1) (MASP-2 CCP2-SP; [1]): 4.47
d(CA1,O2) (MASP-2 CCP2-SP; [1]): 3.79
d(H4,O1) (MASP-2 CCP2-SP; [1]): 4.47
d(H4,O2) (MASP-2 CCP2-SP; [1]): 3.70
d(O1,O2) (MASP-2 CCP2-SP; [1]): 3.38
d(N2,CA2) (MASP-2 CCP2-SP; [2]): 6.12
d(O2,H3) (MASP-2 CCP2-SP; [2]): 4.26
d(O2,N2) (MASP-2 CCP2-SP; [2]): 2.76
a(C3, CA1, O1) (MASP-2 CCP2-SP; Table A6-1 pharmacophore angle): 149.86
a(CA1, O1, O2) (MASP-2 CCP2-SP; Table A6-1 pharmacophore angle): 103.11
a(O1, O2, H4) (MASP-2 CCP2-SP; Table A6-1 pharmacophore angle): 132.32
a(N1, CA1, O1) b) (MASP-2 CCP2-SP; Table A6-1 pharmacophore angle, Methyl-amino-pyridine compounds): 173.60
a(O1, O2, H3) (MASP-2 CCP2-SP; Table A6-2 pharmacophore angle): 148.60
a(O1, O2, N2) (MASP-2 CCP2-SP; Table A6-2 pharmacophore angle): 141.59
a(O2, N2, CA2) (MASP-2 CCP2-SP; Table A6-2 pharmacophore angle): 158.04
Pharmacophore torsion angle a(C3, CA1, O1, H4) (MASP-2 CCP2-SP; [3]): 26.55
Pharmacophore torsion angle a(H4, O1, O2, H3) (MASP-2 CCP2-SP; [3]): 51.88
Pharmacophore torsion angle a(H4, O1, O2, N2) (MASP-2 CCP2-SP; [3]): 138.69
Pharmacophore torsion angle a(N1, CA1, O1, H4) (MASP-2 CCP2-SP; [3]): −0.13
Pharmacophore torsion angle a(O1, H4, O2, CA1) (MASP-2 CCP2-SP; [3]): −83.97
Pharmacophore torsion angle a(O1, O2, N2, CA2) (MASP-2 CCP2-SP; [4]): 121.52
Pharmacophore torsion angle a(O1, O2, N2, CA4) (MASP-2 CCP2-SP; [4]): 119.61
IC50 (Lectin Pathway): < 50 nM
